Legend:
[1] = system: Huh7.5 cells; experiment: Alamar Blue cell viability assay; format: cell-based, human; conditions: in parallel with replication assays, 72 hr
[2] = system: genotype 2b luciferase reporter-linked HCV replicons; experiment: HCV replication assay in combination with NS3 protease inhibitor SCH503034; format: cell-based, Hepatitis C Virus; conditions: combination with various concentrations of SCH503034, FIG. 11
Protocol: FIG. 11. 4BAH2 inhibitors can increase the anti-HCV activity of agents targeting other elements of HCV. The compound of FIG. 10 was tested in standard HCV replication assays as in FIG. 10 but in the presence of various concentrations of an NS3 protease inhibitor (SCH503034, “SCH”). Note that in these assays a genotype 2b luciferase reporter-linked HCV replicons was used, indicating the broad spectrum potential of the C4 compound against multiple HCV genotypes.
To determine the optimum combination of an HCV AH function inhibiting agent, such as 5-(N-Methyl-N-isobutyl)amiloride, with other anti-HCV agents, HCV replication assays and/or animal studies can be performed in the presence of various combinations of the various anti-HCV agents. Increased inhibition of replication in the presence of an additional agent (above that observed with monotherapy) is evidence for the potential benefit of the combination therapy. For example, HCV replication assays employing a luciferase reporter-linked HCV genome in the presence of various combinations of 3-amino-N-carbamimidoyl-6-chloro-5-(isobutyl(methyl)amino)pyrazine-2-carboxamidepyrazine-2-carboxamide and an NS3 protease inhibitor (SCH503034) are described elsewhere in this application and some results are shown in FIG. 11.
Effect of hits on HCV replication. […]

[3] = target: genotype 2a 4BAH2 (Hepatitis C virus genotype 2a, UniProt Q99IB8); experiment: DLS assay of 4BAH2-induced POPC lipid vesicle aggregation, genotype 2a peptide; format: biochemical; design: purchased Anaspec Corporation (San Jose, Calif., USA); host or cells: chemical synthesis; conditions: POPC vesicles
Sequence of genotype 2a 4BAH2 (Q99IB8 1758-1780): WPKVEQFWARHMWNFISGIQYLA
Protocol: Small Unilamellar Vesicle Preparation. Vesicles of 1-palmitoyl-2-oleoyl-sn-glycero-3-phosphocholine (POPC) (Avanti Polar Lipids, Alabaster, Ala., USA) with well-defined size distributions were prepared by the extrusion method. Throughout the experiments, we used a phosphate buffered saline (PBS) buffer (10 mM, pH 7.5 and 150 mM NaCl) in […] MilliQ water (Millipore, Oregon, USA). Extruded vesicles (referred to simply as vesicles) were prepared in the following manner. Lipid films were prepared by first drying the as-supplied lipids dissolved in chloroform under a gentle stream of nitrogen at room temperature. Then the resulting lipid film was stored under vacuum for at least 5 hr in order to remove residual chloroform. Vesicles were prepared by first swelling the lipid film in aqueous solution then vortexing periodically for 5 min. […]
Dynamic Light Scattering. Dynamic light scattering (DLS) was performed using a doubled, Nd:YAG laser (model 532 DPSS, Coherent Laser Group, Santa Clara, Calif.) with a wavelength, λ, of […] and a Brookhaven digital autocorrelator, and analyzed by digital autocorrelator software (Brookhaven Instruments Corporation, New York, USA). […] DLS results were analyzed to give an intensity-weighted size distribution using a discrete Laplace inversion routine. […]

CC(C)CN(C)c1nc(N)c(C(=O)NC(=N)N)nc1Cl [C4, 3-amino-N-carbamimidoyl-6-chloro-5-(isobutyl(methyl)amino)pyrazine-2-carboxamide]
Cellular toxicity (Alamar Blue viability) [1]: No significant cellular toxicity | Effect on anti-HCV activity of NS3 protease inhibitor SCH503034 [2]: increases the anti-HCV activity | Inhibition of genotype 2a 4BAH2-induced vesicle aggregation (DLS) [3]: essentially abrogated

Source: patent US20110217265A1, “Screening for Inhibitors of HCV Amphipathic Helix (AH) Function” (priority 2008, published 2011)
